These results are taken from patent US20060074244A1, “Pyridinyl substituted (1,2,3,)triazoles as inhibitors of the tgf-beta signalling pathway” (priority 2002, published 2006).

In data set [1] the target is T1, recombinant GST-ALK5 (residues 198-503) (Homo sapiens, UniProt P36897).
T1 construct: assays using recombinant GST-ALK5 (residues 198-503)
T1 sequence (P36897 198-503): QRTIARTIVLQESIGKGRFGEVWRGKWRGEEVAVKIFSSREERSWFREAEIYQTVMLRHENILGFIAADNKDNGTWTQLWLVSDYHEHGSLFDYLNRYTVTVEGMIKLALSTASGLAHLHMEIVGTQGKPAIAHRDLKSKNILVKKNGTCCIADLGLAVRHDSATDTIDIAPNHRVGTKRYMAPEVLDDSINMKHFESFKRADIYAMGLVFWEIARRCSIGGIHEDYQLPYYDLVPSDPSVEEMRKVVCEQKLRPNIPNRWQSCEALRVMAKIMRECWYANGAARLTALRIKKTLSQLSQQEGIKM
Description: Alk5 fluorescence polarization assay. The settings on record: displacement of rhodamine green-labelled ligand, 10 nM ALK5; read-out: ALK5 receptor modulator activity (IC50). The data set is classed as binding. As to the method:
Assay 2 (Alk5 Fluorescence Polarization Assay)
Kinase inhibitor compounds conjugated to fluorophores, can be used as fluorescent ligands to monitor ATP competitive binding of other compounds to a given kinase. The increase in depolarization of plane polarized light, caused by release of the bound ligand into solution, is measured as a polarization/anisotropy value. This protocol details the use of a rhodamine green-labelled ligand for assays using recombinant GST-ALK5 (residues 198-503).
Assay buffer components: 62.5 mM Hepes pH 7.5 (Sigma H-4034), 1 mM DTT (Sigma D-0632), 12.5 mM MgCl2 (Sigma M-9272), 1.25 mM CHAPS (Sigma C-3023). […]
ALK5 was added to assay buffer containing the above components and 1 nM of the rhodamine green-labelled ligand so that the final ALK5 concentration was 10 nM based on active site titration of the enzyme. […] The plates were read immediately on a LJL Acquest fluorescence reader (Molecular Devices, serial number AQ1048) with excitation, emission, and dichroic filters of 485 nm, 530 nm, and 505 nm, respectively. The fluorescence polarization for each well was calculated by the Acquest reader and then imported into curve fitting software for construction of concentration response curves. The normalized response was determined relative to the high controls (1 μl DMSO in column 12, rows A-D) and the low controls (1 μl of control compound in column 12, rows E-H). […]
In general terms: Polarisation of emitted light reports the rotation of a fluorescent probe.

Data set [2] relates to TGF-β signalling (PAI-1 promoter-luciferase in HepG2 cells). Description: Cellular transcriptional assay (PAI-1 promoter luciferase reporter). In general terms: In a reporter assay the amount or activity of a reporter protein is the signal.
Description: The assay was performed in HepG2 cells stably transfected with the PAI-1 promoter (known to be a strong TGF-β responsive promoter) linked to a luciferase (firefly) reporter gene. The compounds were selected on their ability to inhibit luciferase activity in cells exposed to TGF-β. In addition, cells were transfected with a second luciferase (Renilla) gene which was not driven by a TGF-13 responsive promoter and was used as a toxicity control.
96 well microplates were seeded, using a multidrop apparatus, with the stably transfected cell line at a concentration of 35000 cells per well in 200 μl of serum-containing medium. These plates were placed in a cell incubator.
18 to 24 hours later (Day 2), cell-incubation procedure was launched. […] Each well contained only one candidate compound and its effect on the PAI-1 promoter was monitored.
Columns 11 and 12 were employed as controls. […] Column 11 was used to determine the ‘reference TGF-β induced firefly luciferase value’ against which values measured in the test wells (to quantify inhibitory activity) were compared. […]
12 to 18 hours later (day 3), the luciferase quantification procedure was launched. […] Following agitation (15 to 30 mins), luciferase activities of the plates were read in a dual-injector luminometer (BMG lumistar). […]

On to `Cc1cccc(-c2[nH]nnc2-c2ccnc(-c3ccc(S(C)(=O)=O)cc3)c2)n1` [Example 1, 2-(4-Methanesulfonylphenyl)-4-(5-(6-methyl)-pyridin-2-yl-3H-[1,2,3]triazol-4-yl)-pyridine], for which the IC50 was 26 nM in data set [1] and 413 nM in data set [2] (Homo sapiens, HepG2, read-out: TGF-β cellular activity).

A word on the melting point: it is the temperature of the solid-liquid transition. `Cc1cccc(-c2nn[nH]c2-c2ccnc(-c3ccc(CN4CCOCC4)cc3)c2)n1` [Example 4, 4-(4-{4-[5-(6-methyl-pyridin-2-yl)-3H-[1,2,3]triazol-4-yl]-pyridin-2-yl}-benzyl)-morpholine]: the melting point is 110 °C.

On to `O=C1C=CCC1` [CPO, Cyclopentenone, reference compound], for which the “firefly and renilla luciferase activities (toxicity control)” value in data set [2] (500 μM CPO with TGF-β, relative to TGF-β only) is on record as “around 50%”.
